Measured values published in ChEMBL document CHEMBL5241130, “Integrating a phenotypic screening with a structural simplification strategy to identify 4-phenoxy-quinoline derivatives to potently disrupt the mitotic localization of Aurora kinase B” (Bioorg Med Chem, 2023).
The source made the active and inactive calls. The rule behind the calls is not given here.

What was measured:
[1] = tested on: Tyrosine-protein kinase ABL1 (Homo sapiens), P00519 [Q252H]; test: Inhibition of human recombinant ABL1 Q252H mutant at 2 uM by KINOMEscan assay
[2] = target: Aurora kinase B (Homo sapiens) (UniProt Q96GD4); test: Disruption of kinetochore localization of AURKB during prophase of human RPE-MYC cells expressing BCL2 at 40 nM measured after 6 hrs by immunofluorescence staining analysis; assay type: cell-based
[3] = target: Aurora kinase B (Homo sapiens) (UniProt Q96GD4); test: Disruption of mitotic localization of AURKB in human RPE-MYC H2B-GFP cells assessed as induction of mitotic arrest by fluorescence high content cell imaging analysis; assay type: cell-based
[4] = target: Aurora kinase B (Homo sapiens) (UniProt Q96GD4); test: Disruption of kinetochore localization of AURKB during anaphase of human RPE-MYC cells expressing BCL2 at 40 nM measured after 6 hrs by immunofluorescence staining analysis; assay type: cell-based
[5] = Plasma concentration in BALB/c nude mouse xenografted with human HCT-116 cells administered as single dose and measured after 6 hrs by LC-MS/MS analysis; assay type: ADME
[6] = target: T1, Aurora kinase A (Homo sapiens) (UniProt O14965); test: Inhibition of AURKA in human RPE-MYC H2B-GFP cells assessed as inhibition of autophosphorylation of AURKA at Thr288 residue at 8XMEC measured after 6 hrs by immunofluorescence staining analysis; assay type: cell-based
T1 sequence (whole entry): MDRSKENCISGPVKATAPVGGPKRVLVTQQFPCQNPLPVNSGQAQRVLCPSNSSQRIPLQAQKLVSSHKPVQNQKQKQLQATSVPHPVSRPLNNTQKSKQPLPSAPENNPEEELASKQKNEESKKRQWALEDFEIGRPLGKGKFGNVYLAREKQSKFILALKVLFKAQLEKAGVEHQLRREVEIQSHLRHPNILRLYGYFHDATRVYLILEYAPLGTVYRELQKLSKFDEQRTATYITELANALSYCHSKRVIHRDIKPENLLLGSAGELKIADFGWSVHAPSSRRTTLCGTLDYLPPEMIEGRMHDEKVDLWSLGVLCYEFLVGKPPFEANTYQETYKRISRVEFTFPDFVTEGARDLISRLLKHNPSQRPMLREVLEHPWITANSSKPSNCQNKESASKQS

[7] = target: Aurora kinase B (Homo sapiens) (UniProt Q96GD4); test: Disruption of mitotic localization of AURKB in human RPE-MYC cells expressing BCL2 assessed as disruption of PLK1 localization at spindle mid-zone at 40 nM measured after 6 hrs by immunofluorescence staining analysis; assay type: cell-based
[8] = Kinetic solubility of the compound in HCl buffer at pH 2.2 measured after 72 hrs by LC-MS analysis; assay type: physicochemical; details: read-out: Kinetic_solubility
[9] = target: Aurora kinase B (Homo sapiens) (UniProt Q96GD4); test: Disruption of mitotic localization of AURKB at the spindle mid-zone and equatorial cortex in human RPE-MYC cells expressing BCL2 at 40 nM measured after 6 hrs by immunofluorescence staining analysis; assay type: cell-based
Mus musculus = test: Induction of mitotic arrest in BALB/c nude mouse xenografted with human HCT-116 cells assessed as increase in mitotic index by measuring increase in accumulation of H3Ser10P positive cells in tumor at 50 mg/kg, po bid for 7 days by immunohistochemical staining based analysis relative to control; assay type: functional; details: time 7 day
[10] = MRT (0 to infinity) in Wistar rat at 20 mg/kg, po by LC-MS/MS analysis; assay type: ADME, organism-based; details: in vivo
[11] = Clearance in Wistar rat at 20 mg/kg, po measured for 24 hrs by LC-MS/MS analysis; assay type: ADME, organism-based; details: in vivo
[12] = Oral bioavailability in Wistar rat at 20 mg/kg measured for 24 hrs by LC-MS/MS analysis; assay type: ADME, organism-based; details: in vivo
[13] = Dose normalized AUC (0 to infinity) in Wistar rat at 20 mg/kg, po by LC-MS/MS analysis; assay type: ADME, organism-based; details: in vivo
HeLa = test: Cytotoxicity against human HeLa cells assessed as cell growth inhibition incubated for 3 days by MTT assay; assay type: functional, cell-based; details: time 3.0 day
[14] = Cmax in Wistar rat at 20 mg/kg, po measured for 24 hrs by LC-MS/MS analysis; assay type: ADME, organism-based; set-up: time 24 hrs, dose 20 mg/kg, route po; details: in vivo
[15] = Half life in Wistar rat at 20 mg/kg, po measured for 24 hrs by LC-MS/MS analysis; assay type: ADME, organism-based; details: in vivo
[16] = Tmax in Wistar rat at 20 mg/kg, po measured for 24 hrs by LC-MS/MS analysis; assay type: ADME, organism-based; details: in vivo
[17] = target: Mitotic checkpoint serine/threonine-protein kinase BUB1 (Homo sapiens) (UniProt O43683); test: Inhibition of Bub1 (unknown origin) by bio-chip based analysis
[18] = tested on: Tyrosine-protein kinase ABL1 (Homo sapiens), P00519 [H396P]; test: Inhibition of human recombinant ABL1 H396P mutant at 2 uM by KINOMEscan assay
[19] = target: Aurora kinase B (Homo sapiens) (UniProt Q96GD4); test: Disruption of mitotic localization of AURKB in human RPE-MYC H2B-GFP cells assessed as induction of polyploidy by fluorescence high content cell imaging analysis; assay type: cell-based
[20] = Dose normalized AUC (0 to infinity) in Wistar rat at 2 mg/kg, iv by LC-MS/MS analysis; assay type: ADME, organism-based; details: in vivo
[21] = target: Serine/threonine-protein kinase PLK3 (Homo sapiens) (UniProt Q9H4B4); test: Inhibition of PLK3 (unknown origin) by bio-chip based analysis
[22] = Lipophilicity, log D of the compound in Octanol and PBS buffer at pH 7.4 incubated for 24 hrs under shaking condition followed by incubation for 1 hr without shaking by LC-MS analysis; assay type: physicochemical
[23] = target: Serine/threonine-protein kinase PLK1 (Homo sapiens) (UniProt P53350); test: Inhibition of PLK1 (unknown origin) by bio-chip based analysis
[24] = Apparent volume of distribution in Wistar rat at 20 mg/kg, po measured for 24 hrs by LC-MS/MS analysis; assay type: ADME, organism-based; details: in vivo
[25] = Volume of distribution at steady state in Wistar rat at 2 mg/kg, iv measured after 24 hrs by LC-MS/MS analysis; assay type: ADME, organism-based; details: in vivo, read-out: Vdss
[26] = target: Aurora kinase B (Homo sapiens) (UniProt Q96GD4); test: Inhibition of AURKB in human RPE-MYC H2B-GFP cells assessed as inhibition of histone H3 phosphorylation at Ser10 residue at 8XMEC measured after 6 hrs by immunofluorescence staining analysis; assay type: cell-based
[27] = tested on: Tyrosine-protein kinase ABL1 (Homo sapiens), P00519 [F317L]; test: Inhibition of human recombinant ABL1 F317L mutant at 2 uM by KINOMEscan assay
[28] = target: Aurora kinase B (Homo sapiens) (UniProt Q96GD4); test: Inhibition of AURKB (unknown origin) by bio-chip based analysis
[29] = Drug degradation in human plasma at 1 to 10 uM incubated for 2 hrs by LC-MS analysis; assay type: ADME, cell-free; details: dose 1-10 µM, read-out: Drug degradation
[30] = target: Aurora kinase B (Homo sapiens) (UniProt Q96GD4); test: Disruption of mitotic localization of AURKB in human RPE-MYC cells expressing BCL2 assessed as disruption of PLK1 localization at centrosome during prophase at 40 nM measured after 6 hrs by immunofluorescence staining analysis; assay type: cell-based
[31] = target: Aurora kinase B (Homo sapiens) (UniProt Q96GD4); test: Disruption of mitotic localization of AURKB in human RPE-MYC H2B-GFP cells assessed as induction of polyploidy by fluorescence high content cell imaging analysis relative to control; assay type: cell-based

Aurora kinase B (Homo sapiens), sequence (Q96GD4 whole entry): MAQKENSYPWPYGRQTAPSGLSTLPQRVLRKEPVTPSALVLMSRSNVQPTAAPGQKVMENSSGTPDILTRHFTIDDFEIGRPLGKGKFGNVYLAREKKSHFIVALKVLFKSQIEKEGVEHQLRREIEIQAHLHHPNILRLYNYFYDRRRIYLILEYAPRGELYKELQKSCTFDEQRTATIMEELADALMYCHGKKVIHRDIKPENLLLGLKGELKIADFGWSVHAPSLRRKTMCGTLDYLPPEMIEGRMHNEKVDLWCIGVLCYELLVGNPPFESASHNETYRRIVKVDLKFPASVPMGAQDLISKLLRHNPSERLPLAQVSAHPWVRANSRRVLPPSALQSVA
Mitotic checkpoint serine/threonine-protein kinase BUB1 (Homo sapiens), sequence (O43683 whole entry, looked up): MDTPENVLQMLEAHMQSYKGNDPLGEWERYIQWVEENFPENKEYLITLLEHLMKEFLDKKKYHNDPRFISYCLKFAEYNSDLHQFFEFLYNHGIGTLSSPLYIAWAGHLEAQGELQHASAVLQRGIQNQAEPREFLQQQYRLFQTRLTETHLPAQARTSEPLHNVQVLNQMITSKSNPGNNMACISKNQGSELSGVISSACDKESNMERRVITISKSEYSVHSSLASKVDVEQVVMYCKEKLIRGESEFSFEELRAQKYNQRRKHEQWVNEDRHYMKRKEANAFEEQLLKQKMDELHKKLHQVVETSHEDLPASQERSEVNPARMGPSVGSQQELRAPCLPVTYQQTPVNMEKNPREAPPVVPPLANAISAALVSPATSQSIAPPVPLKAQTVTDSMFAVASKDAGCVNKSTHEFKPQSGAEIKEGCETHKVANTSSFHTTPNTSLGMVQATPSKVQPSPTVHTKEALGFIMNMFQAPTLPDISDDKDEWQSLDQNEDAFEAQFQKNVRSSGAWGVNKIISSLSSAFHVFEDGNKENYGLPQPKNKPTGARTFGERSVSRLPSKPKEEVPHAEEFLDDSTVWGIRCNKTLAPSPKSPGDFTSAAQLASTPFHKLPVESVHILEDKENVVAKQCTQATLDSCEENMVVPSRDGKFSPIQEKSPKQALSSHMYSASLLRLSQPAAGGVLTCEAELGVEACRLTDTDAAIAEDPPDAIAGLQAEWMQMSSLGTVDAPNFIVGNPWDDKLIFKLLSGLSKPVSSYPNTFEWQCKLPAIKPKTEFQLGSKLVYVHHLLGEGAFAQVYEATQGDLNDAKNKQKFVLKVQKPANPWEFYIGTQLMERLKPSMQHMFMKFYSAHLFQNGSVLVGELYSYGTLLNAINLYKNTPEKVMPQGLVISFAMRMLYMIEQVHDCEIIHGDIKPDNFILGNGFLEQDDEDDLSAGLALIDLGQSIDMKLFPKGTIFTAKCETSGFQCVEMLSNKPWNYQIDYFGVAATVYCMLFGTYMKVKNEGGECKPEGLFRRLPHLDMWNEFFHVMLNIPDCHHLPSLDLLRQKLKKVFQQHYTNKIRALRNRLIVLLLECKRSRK
Serine/threonine-protein kinase PLK1 (Homo sapiens), sequence (P53350 whole entry): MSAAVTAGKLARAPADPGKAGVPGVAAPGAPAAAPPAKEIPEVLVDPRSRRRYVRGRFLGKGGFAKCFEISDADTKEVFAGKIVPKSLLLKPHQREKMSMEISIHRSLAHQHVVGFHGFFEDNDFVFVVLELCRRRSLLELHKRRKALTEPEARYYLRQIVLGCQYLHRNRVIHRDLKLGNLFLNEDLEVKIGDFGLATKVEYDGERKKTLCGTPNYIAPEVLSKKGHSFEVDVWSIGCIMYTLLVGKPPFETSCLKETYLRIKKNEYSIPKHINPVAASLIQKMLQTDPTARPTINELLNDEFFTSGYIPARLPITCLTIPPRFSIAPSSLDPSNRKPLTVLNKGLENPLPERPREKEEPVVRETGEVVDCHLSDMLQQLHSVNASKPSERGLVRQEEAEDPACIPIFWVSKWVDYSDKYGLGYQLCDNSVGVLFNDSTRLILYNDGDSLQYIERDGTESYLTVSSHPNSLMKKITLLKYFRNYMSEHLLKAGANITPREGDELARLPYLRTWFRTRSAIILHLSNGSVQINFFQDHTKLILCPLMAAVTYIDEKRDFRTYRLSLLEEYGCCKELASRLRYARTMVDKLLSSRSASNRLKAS
Serine/threonine-protein kinase PLK3 (Homo sapiens), sequence (Q9H4B4 whole entry, looked up): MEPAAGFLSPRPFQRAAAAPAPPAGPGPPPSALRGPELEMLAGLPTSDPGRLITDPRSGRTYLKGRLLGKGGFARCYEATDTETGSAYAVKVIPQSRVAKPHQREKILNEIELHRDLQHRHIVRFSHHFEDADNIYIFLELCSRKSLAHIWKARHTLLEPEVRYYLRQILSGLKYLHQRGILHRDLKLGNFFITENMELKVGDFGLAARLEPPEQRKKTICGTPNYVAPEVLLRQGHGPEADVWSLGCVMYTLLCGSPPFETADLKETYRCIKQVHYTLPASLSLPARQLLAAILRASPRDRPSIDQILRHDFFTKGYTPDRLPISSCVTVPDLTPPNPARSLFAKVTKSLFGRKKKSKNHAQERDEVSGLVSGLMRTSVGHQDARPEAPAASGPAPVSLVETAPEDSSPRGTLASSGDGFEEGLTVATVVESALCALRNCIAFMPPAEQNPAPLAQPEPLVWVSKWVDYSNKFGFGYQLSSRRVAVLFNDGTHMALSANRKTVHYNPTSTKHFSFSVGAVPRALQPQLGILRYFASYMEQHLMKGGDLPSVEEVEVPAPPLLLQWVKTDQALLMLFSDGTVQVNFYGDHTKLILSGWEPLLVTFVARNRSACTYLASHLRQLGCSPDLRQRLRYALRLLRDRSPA

## COc1cc(NC(C)=O)cc(Oc2ccnc3ccc(OC)cc23)c1
[1]
  inhibition: Active
[2]
  Activity: inactive
[3]
  Activity: inactive
[4]
  Activity: Active
[5]
  concentration at 6 h: 213 ng/mL
[6]
  inhibition: < 40%
[7]
  Activity: Active
[8]
  solubility kinetic at 72 h: > 190 µM
[9]
  Activity: Active
Mus musculus
  fold change (FC): 6.7
[10]
  MRT inf: 2.83 h
[11]
  CL/F: 54.7 mL/min/kg
[12]
  bioavailability: 27.6%
[13]
  AUC/dose: 149.54 ng·h/mL/mg/kg
HeLa
  Activity: Active
[14]
  Cmax: 3140 ng/mL
[15]
  half-life: 3.26 h
[16]
  Tmax: 0.5 h
[17]
  inhibition: inactive
[18]
  inhibition: Active
[19]
  MEC: 0.01 µM
[20]
  AUC/dose: 517.74 ng·h/mL/mg/kg
[21]
  inhibition: inactive
[22]
  logD at 25 h: 3.81
[23]
  inhibition: inactive
[24]
  Vz: 15.41 L/kg
[25]
  Vd: 3.7 L/kg
[26]
  inhibition: < 40%
[27]
  inhibition: Active
[28]
  inhibition: inactive
[29]
  metabolised at 2 h, up to 10 µM: 0%
[30]
  Activity: inactive
[31]
  Activity: 100%
